Data set [1] can be described thus: Solid-form stability on storage at ambient temperature and humidity, XRPD analysis. As to conditions: for form conversion during storage: during storage (general description); for solid form by XRPD after storage: stored approximately two months, ambient temperature and humidity, hydrochloride. The format is physicochemical. The source says:
Tiagabine HCl Form K was stored for approximately two months under conditions of ambient temperature and humidity.

Data set [2] can be described thus: Moisture sorption/desorption (VTI SGA-100 moisture balance). Type of data set: physicochemical. As to the method:
Moisture sorption/desorption data were collected on a VTI SGA-100 moisture balance system. For sorption isotherms, a sorption range of 5 to 95% relative humidity (RH) and a desorption range of 95 to 5% RH in 10% RH increments were used for analysis. The samples were not dried prior to analysis. Equilibrium criteria used for analysis were less than 0.0100% weight change in 5 minutes with a maximum equilibration time of 3 hours if the weight criterion was not met. Data were not corrected for the initial moisture content of the samples.

The structures appear in SMILES notation.

Regarding `Cc1ccsc1C(=CCCN1CCC[C@@H](C(=O)O)C1)c1sccc1C.Cl` [Tiagabine HCl Form K, tiagabine hydrochloride], the “form conversion during storage” value in data set [1] (listed as Tiagabine hydrochloride Form K) is “converts to a mixture of tiagabine hydrochloride Forms Q and B”. Besides, the “solid form by XRPD after storage” value in data set [1] was “a mixture of tiagabine HCl Forms Q and B”.
Regarding `Cc1ccsc1C(=CCCN1CCC[C@@H](C(=O)O)C1)c1sccc1C.Cl` [Tiagabine HCl Form L, tiagabine hydrochloride], in data set [1] (listed as Tiagabine hydrochloride Form L), the “form conversion during storage” value is “converts to a mixture of tiagabine hydrochloride Forms B and Q”. Further, in data set [1], the “solid form by XRPD after storage” value is “a mixture of tiagabine HCl Forms B and Q”.
With `Cc1ccsc1C(=CCCN1CCC[C@@H](C(=O)O)C1)c1sccc1C` [Tiagabine free base Form A, (−)-(R)-1-(4,4-bis(3-methyl-2-thienyl)-3-butenyl)-3-piperidinecarboxylic acid], the “solid form by XRPD after moisture sorption/desorption” value in data set [2] (XRPD analysis of the sample after moisture sorption/desorption) was “tiagabine free base amorphous”. Besides, the “weight loss from 95% to 5% RH” value in data set [2] (desorption 95% to 5% RH) was 18.7%. The “weight loss upon equilibration at 5% relative humidity (RH)” value in data set [2] (equilibration at 5% RH, sample not dried prior to analysis) came out at 1.0%. The “weight gain from 5% to 95% RH” value in data set [2] (sorption 5% to 95% RH) worked out at 23.5%.

The record behind these values is patent publication US20080051435A1, “Crystalline and amorphous forms of tiagabine” (Cephalon, Inc., priority 2006, published 2008).
